Measurements reported in patent publication US20250026778A1 (TIUMBIO CO., LTD., priority 2021, published 2025).

molecular target: T1, his-galectin-3 (Homo sapiens, UniProt P17931); test: TR-FRET assay (in vitro galectin-3 binding inhibitory activity test); details: Table 1; compound at 20 μM; 60 nM his-galectin-3, 15 nM biotin-ASF; read-out: % Inhibitory activity (at 20 μM)
T1 construct: purchased Abcam
How it was run: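 Compound is premixed with his-galectin-3 (60 nM final), then biotin-ASF (15 nM), Tb anti-His antibody (2 nM) and streptavidin-d2 (20 nM) are added. After at least 3.5 hours at RT in HEPES/NaCl buffer with Tween 20 and BSA, TR-FRET is read at 615/665 nm. DMSO serves as the uninhibited control, ASF omission as background.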

T1 sequence (P17931 whole entry): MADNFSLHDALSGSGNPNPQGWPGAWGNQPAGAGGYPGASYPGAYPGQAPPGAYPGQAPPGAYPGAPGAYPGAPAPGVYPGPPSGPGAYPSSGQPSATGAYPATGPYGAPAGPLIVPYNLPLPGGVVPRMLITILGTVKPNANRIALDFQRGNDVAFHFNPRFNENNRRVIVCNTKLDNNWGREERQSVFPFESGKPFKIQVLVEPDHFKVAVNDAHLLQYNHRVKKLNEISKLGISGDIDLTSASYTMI

Structure (SMILES)	inhibition at 20 µM [%]
O=C(N[C@@H]1CCO[C@]12O[C@H](CO)[C@H](O)[C@H](n1cc(-c3cc(F)c(F)c(F)c3)nn1)[C@H]2O)c1cccc(Oc2ccccc2)c1 [Compound A130, N-((4R,5S,7R,8R,9S,10R)-8,10-dihydroxy-7-(hydroxymethyl)-9-(4-(3,4,5-trifluorophenyl)-1H-1,2,3-triazol-1-yl)-1,6-dioxaspiro[4.5]decan-4-yl)-3-phenoxybenzamide]	50 to 75
O=C(N[C@@H]1CCO[C@]12O[C@H](CO)[C@H](O)[C@H](n1cc(-c3cc(F)c(F)c(F)c3)nn1)[C@H]2O)c1ccc(-c2ccccc2)cc1 [Compound A131, N-((4R,5S,7R,8R,9S,10R)-8,10-dihydroxy-7-(hydroxymethyl)-9-(4-(3,4,5-trifluorophenyl)-1H-1,2,3-triazol-1-yl)-1,6-dioxaspiro[4.5]decan-4-yl)-[1.1′ biphenyl]-4-carboxamide]	< 25
COc1cccc(CN[C@@H]2CCO[C@]23O[C@H](CO)[C@H](O)[C@H](n2cc(-c4cc(F)c(F)c(F)c4)nn2)[C@H]3O)c1O [Compound A132, (4R,5S,7R,8R,9S,10R)-4-((2,3-hydroxy-3-methoxybenzyl)amino)-7-(hydroxymethyl)-9-(4-(3,4,5-trifluorophenyl)-1H-1,2,3-triazol-1-yl)-1,6-dioxaspiro[4.5]decane-8,10-diol]	25 to 50
O=C(N[C@@H]1CCO[C@]12O[C@H](CO)[C@H](O)[C@H](n1cc(-c3cc(F)c(F)c(F)c3)nn1)[C@H]2O)c1cccc2ccccc12 [Compound A133, N-((4R,5S,7R,8R,9S,10R)-8,10-dihydroxy-7-(hydroxymethyl)-9-(4-(3,4,5-trifluorophenyl)-1H-1,2,3-triazol-1-yl)-1,6-dioxaspiro[4.5]decan-4-yl)-1-naphthamide]	> 75
O=C(N[C@@H]1CCO[C@]12O[C@H](CO)[C@H](O)[C@H](n1cc(-c3cc(F)c(F)c(F)c3)nn1)[C@H]2O)c1cccc(-c2ccccc2)c1 [Compound A134, N-((4R,5S,7R,8R,9S,10R)-8,10-dihydroxy-7-(hydroxymethyl)-9-(4-(3,4,5-trifluorophenyl)-1H-1,2,3-triazol-1-yl)-1,6-dioxaspiro[4.5]decan-4-yl)-[1.1′ biphenyl]-3-carboxamide]	> 75
O=C(Cc1ccc(-c2ccccc2)cc1)N[C@@H]1CCO[C@]12O[C@H](CO)[C@H](O)[C@H](n1cc(-c3cc(F)c(F)c(F)c3)nn1)[C@H]2O [Compound A135, 2-([1,1′-biphenyl]-4-yl)-N-((4R,5S,7R,8R,9S,10R)-8,10-dihydroxy-7-(hydroxymethyl)-9-(4-(3,4,5-trifluorophenyl)-1H-1,2,3-triazol-1-yl)-1,6-dioxaspiro[4.5]decan-4-yl)acetamide]	< 25
O=C(Cc1cccc(C(F)(F)F)c1)N[C@@H]1CCO[C@]12O[C@H](CO)[C@H](O)[C@H](n1cc(-c3cc(F)c(F)c(F)c3)nn1)[C@H]2O [Compound A136, N-((4R,5S,7R,8R,9S,10R)-8,10-dihydroxy-7-(hydroxymethyl)-9-(4-(3,4,5-trifluorophenyl)-1H-1,2,3-triazol-1-yl)-1,6-dioxaspiro[4.5]decan-4-yl)-2-(3-(trifluoromethyl)phenyl)acetamide]	> 75
CC(C(=O)N[C@@H]1CCO[C@]12O[C@H](CO)[C@H](O)[C@H](n1cc(-c3cc(F)c(F)c(F)c3)nn1)[C@H]2O)c1ccccc1 (stereo partly drawn) [Compound A137, N-((4R,5S,7R,8R,9S,10R)-8,10-dihydroxy-7-(hydroxymethyl)-9-(4-(3,4,5-trifluorophenyl)-1H-1,2,3-triazol-1-yl)-1,6-dioxaspiro[4.5]decan-4-yl)-2-phenylpropanamide]	50 to 75
O=C(c1ccccc1)N1CCC[C@]2(C1)O[C@H](CO)[C@H](O)[C@H](n1cc(-c3cc(F)c(F)c(F)c3)nn1)[C@H]2O [Compound A138, ((2R,3R,4S,5R,6R)-3,5-dihydroxy-2-(hydroxymethyl)-4-(4-(3,4,5-trifluorophenyl)-1H-1,2,3-triazol-1-yl)-1-oxa-8-azaspiro[5.5]undecan-8-yl)(phenyl)methanone]	< 25
COc1cccc(CC(=O)N2CCC[C@]3(C2)O[C@H](CO)[C@H](O)[C@H](n2cc(-c4cc(F)c(F)c(F)c4)nn2)[C@H]3O)c1 [Compound A140, 1-((2R,3R,4S,5R,6R)-3,5-dihydroxy-2-(hydroxymethyl)-4-(4-(3,4,5-trifluorophenyl)-1H-1,2,3-triazol-1-yl)-1-oxa-8-azaspiro[5.5]undecan-8-yl)-2-(3-methoxyphenyl)ethanone]	< 25
OC[C@H]1O[C@@]2(CCCN(Cc3cccc(Cl)c3)C2)[C@H](O)[C@@H](n2cc(-c3cc(F)c(F)c(F)c3)nn2)[C@H]1O [Compound A143, (2R,3R,4S,5R,6R)-8-(3-chlorobenzyl)-2-(hydroxymethyl)-4-(4-(3,4,5-trifluorophenyl)-1H-1,2,3-triazol-1-yl)-1-oxa-8-azaspiro[5.5]undecane-3,5-diol]	< 25
O=C(c1cccnc1)N1CCC[C@]2(C1)O[C@H](CO)[C@H](O)[C@H](n1cc(-c3cc(F)c(F)c(F)c3)nn1)[C@H]2O [Compound A144, ((2R,3R,4S,5R,6R)-3,5-dihydroxy-2-(hydroxymethyl)-4-(4-(3,4,5-trifluorophenyl)-1H-1,2,3-triazol-1-yl)-1-oxa-8-azaspiro[5.5]undecan-8-yl)(pyridin-3-yl)methanone]	< 25
O=C(N[C@@H]1CCO[C@]12O[C@H](CO)[C@H](O)[C@H](n1cc(-c3cc(F)c(F)c(F)c3)nn1)[C@H]2O)C(F)(F)c1ccccc1 [Compound A147, N-((4R,5S,7R,8R,9S,10R)-8,10-dihydroxy-7-(hydroxymethyl)-9-(4-(3,4,5-trifluorophenyl)-1H-1,2,3-triazol-1-yl)-1,6-dioxaspiro[4.5]decan-4-yl)-2,2-difluoro-2-phenylacetamide]	< 25
O=C(Cc1ccc(Oc2ccccc2)cc1)N[C@@H]1CCO[C@]12O[C@H](CO)[C@H](O)[C@H](n1cc(-c3cc(F)c(F)c(F)c3)nn1)[C@H]2O [Compound A148, N-((4R,5S,7R,8R,9S,10R)-8,10-dihydroxy-7-(hydroxymethyl)-9-(4-(3,4,5-trifluorophenyl)-1H-1,2,3-triazol-1-yl)-1,6-dioxaspiro[4.5]decan-4-yl)-2-(4-phenoxyphenyl)acetamide]	25 to 50
O=C(N[C@@H]1CCO[C@]12O[C@H](CO)[C@H](O)[C@H](n1cc(-c3cc(F)c(F)c(F)c3)nn1)[C@H]2O)c1ccc2cc(Cl)ccc2c1 [Compound A149, 6-chloro-N-((4R,5S,7R,8R,9S,10R)-8,10-dihydroxy-7-(hydroxymethyl)-9-(4-(3,4,5-trifluorophenyl)-1H-1,2,3-triazol-1-yl)-1,6-dioxaspiro[4.5]decan-4-yl)-2-naphthamide]	50 to 75
O=C(N[C@@H]1CCO[C@]12O[C@H](CO)[C@H](O)[C@H](n1cc(-c3cc(F)c(F)c(F)c3)nn1)[C@H]2O)c1cccc(Br)c1 [Compound A150, 3-bromo-N-((4R,5S,7R,8R,9S,10R)-8,10-dihydroxy-7-(hydroxymethyl)-9-(4-(3,4,5-trifluorophenyl)-1H-1,2,3-triazol-1-yl)-1,6-dioxaspiro[4.5]decan-4-yl)benzamide]	> 75

same assay, conditions: Table 3, found values; compound at 20 μM; 60 nM his-galectin-3, 15 nM biotin-ASF; read-out: % Inhibitory activity (at 20 μM)

Structure (SMILES)	inhibition at 20 µM [%]
O=C(N[C@@H]1CCO[C@]12O[C@H](CO)[C@H](O)[C@H](n1cc(-c3cc(F)c(F)c(F)c3)nn1)[C@H]2O)c1cccc(Oc2ccccc2)c1 [Compound A130, N-((4R,5S,7R,8R,9S,10R)-8,10-dihydroxy-7-(hydroxymethyl)-9-(4-(3,4,5-trifluorophenyl)-1H-1,2,3-triazol-1-yl)-1,6-dioxaspiro[4.5]decan-4-yl)-3-phenoxybenzamide]	56.6

same assay, conditions: read-out: % Inhibitory activity (at 20 μM), Table 1; compound at 20 μM; 60 nM his-galectin-3, 15 nM biotin-ASF

Structure (SMILES)	inhibition at 20 µM [%]
O=C(Cc1cccc(Cl)c1)N1CCC[C@]2(C1)O[C@H](CO)[C@H](O)[C@H](n1cc(-c3cc(F)c(F)c(F)c3)nn1)[C@H]2O [Compound A139, 2-(3-chlorophenyl)-1-((2R,3R,4S,5R,6R)-3,5-dihydroxy-2-(hydroxymethyl)-4-(4-(3,4,5-trifluorophenyl)-1H-1,2,3-triazol-1-yl)-1-oxa-8-azaspiro[5.5]undecan-8-yl)ethanone]	< 25
OC[C@H]1O[C@@]2(CCCN(Cc3ccccc3)C2)[C@H](O)[C@@H](n2cc(-c3cc(F)c(F)c(F)c3)nn2)[C@H]1O [Compound A141, (2R,3R,4S,5R,6R)-8-benzyl-2-(hydroxymethyl)-4-(4-(3,4,5-trifluorophenyl)-1H-1,2,3-triazol-1-yl)-1-oxa-8-azaspiro[5.5]undecane-3,5-diol]	< 25
OC[C@H]1O[C@@]2(CCCN(Cc3cccnc3)C2)[C@H](O)[C@@H](n2cc(-c3cc(F)c(F)c(F)c3)nn2)[C@H]1O [Compound A142, (2R,3R,4S,5R,6R)-2-(hydroxymethyl)-8-(pyridin-3-ylmethyl)-4-(4-(3,4,5-trifluorophenyl)-1H-1,2,3-triazol-1-yl)-1-oxa-8-azaspiro[5.5]undecane-3,5-diol]	< 25
O=C(c1cccc(Cl)c1)N1CCC[C@]2(C1)O[C@H](CO)[C@H](O)[C@H](n1cc(-c3cc(F)c(F)c(F)c3)nn1)[C@H]2O [Compound A145, (3-chlorophenyl)((2R,3R,4S,5R,6R)-3,5-dihydroxy-2-(hydroxymethyl)-4-(4-(3,4,5-trifluorophenyl)-1H-1,2,3-triazol-1-yl)-1-oxa-8-azaspiro[5.5]undecan-8-yl)methanone]	< 25
O=C(Cc1ccccc1)N[C@@H]1CCO[C@]12O[C@H](CO)[C@H](O)[C@H](n1cc(-c3cc(F)c(F)c(F)c3)nn1)[C@H]2O [Compound A146, N-((4R,5S,7R,8R,9S,10R)-8,10-dihydroxy-7-(hydroxymethyl)-9-(4-(3,4,5-trifluorophenyl)-1H-1,2,3-triazol-1-yl)-1,6-dioxaspiro[4.5]decan-4-yl)-2-phenylacetamide]	25 to 50

same assay, conditions: read-out: % Inhibitory activity (at 20 μM), Table 3, found values; compound at 20 μM; 60 nM his-galectin-3, 15 nM biotin-ASF

Structure (SMILES)	inhibition at 20 µM [%]
O=C(Cc1ccccc1)N[C@@H]1CCO[C@]12O[C@H](CO)[C@H](O)[C@H](n1cc(-c3cc(F)c(F)c(F)c3)nn1)[C@H]2O [Compound A146, N-((4R,5S,7R,8R,9S,10R)-8,10-dihydroxy-7-(hydroxymethyl)-9-(4-(3,4,5-trifluorophenyl)-1H-1,2,3-triazol-1-yl)-1,6-dioxaspiro[4.5]decan-4-yl)-2-phenylacetamide]	40.7
